From EPA's aquatic toxicity sets

test system: Tetrahymena pyriformis; experiment: 48 h IGC50 (-log10 mol/L); higher = more toxic

| SMILES | 48 h IGC50 (-log10 mol/L) |
| --- | --- |
| CC(C)(C)CC=O | 2.63 |
| Nc1cc([N+](=O)[O-])cc(Cl)c1O | 4.2 |
| N#Cc1ccccc1[N+](=O)[O-] | 4.08 |
| O=[N+]([O-])c1cc(Cl)c(Cl)c(Cl)c1 | 4.55 |
| O=[N+]([O-])c1cc(Cl)c(Cl)c(Cl)c1Cl | 4.78 |
| CCOC(=O)c1ccc(F)cc1 | 3.01 |
| CC(=O)C(Cl)Cl | 3.64 |
| C=COC(=O)CCCCCCC | 2.7 |
| CC(O)CBr (stereo unspecified) | 1.81 |
| O=C/C=C/c1ccco1 | 3.37 |
| CNc1ccc(C(=O)OC)cc1 | 3.31 |
| CCCOC(=O)c1ccccc1 | 3.42 |
| O=Cc1ccc(F)cc1 | 2.87 |
| C=CCOC(=O)CCCCCCCCC | 3.48 |
| O=[N+]([O-])c1ccc(CO)cc1 | 3.12 |
| CCCCC(=O)Cl | 2.65 |
| COCCCN | 1.23 |
| CCOC(=O)c1ccc(OC)cc1 | 3.77 |
| O=C(O)CCCC(=O)O | 2.36 |
| Oc1c(Br)cc(Br)c(O)c1Br | 4.06 |
| CCCCCC#CCCO | 3.34 |
| CC(=O)OCCCCCBr | 3.29 |

| SMILES | 48 h IGC50 (-log10 mol/L) |
| --- | --- |
| CC(C)c1ccc(Br)cc1 | 3.85 |
| O=C(O)CCCCCCCBr | 4.32 |
| O=C(O)CCCCCC(=O)O | 2.42 |
| CCOC(=O)/C=C/c1ccccc1 | 3.99 |
| CCC(Cl)C(=O)O (stereo unspecified) | 2.65 |
| N#Cc1ccncc1 | 2.18 |
| Cc1ccc(Cl)cc1N | 3.5 |
| c1ccc2c(c1)ccc1cccnc12 | 4.31 |
| CC(C)C(N)CO (stereo unspecified) | 2.42 |
| CCC[C@H](O)c1ccccc1 | 2.91 |
| N#Cc1ccc[nH]1 | 2.42 |
| OCCC(c1ccccc1)c1ccccc1 | 4.04 |
| OCc1cccc(Br)c1 | 3.37 |
| Cc1ccc(O)c(O)c1 | 3.37 |
| CCCCC(CC)COC(=O)c1ccc(O)cc1 (stereo unspecified) | 5.51 |
| O=C(NO)c1ccccc1 | 3.38 |
| Clc1sccc1Br | 3.73 |
| C=C(C)OC(C)=O | 2.51 |
| C#CCOC(=O)C=C | 4.06 |
| Clc1ccc(Br)s1 | 3.75 |
| CCCCCCCCCCN | 5.06 |
| CC(C)(O)C#CC(C)(C)O | 1.42 |

| SMILES | 48 h IGC50 (-log10 mol/L) |
| --- | --- |
| CCOC(=O)c1ccc(C)cc1 | 3.68 |
| O=C(O)CCCCCCCCCCC(=O)O | 2.91 |
| CCCCCCCCCCC(=O)OC | 4.42 |
| CCCCC/C=C/C(C)=O | 3.98 |
| O=[N+]([O-])c1cc(Br)ccc1Br | 4.37 |
| CC(C)(C)CCO | 2.26 |
| C/C=C/C(=O)OC(C)(C)C | 2.36 |
| OCc1cccc(Cl)c1 | 3.15 |
| Oc1cc(O)c(Cl)cc1Cl | 3.97 |
| OCc1ccccc1O | 2.05 |
| NCCO | 1.11 |
| CCN(CC)CCO | 1.5 |
| CCCI | 2.61 |
| O=Cc1ccc(Cl)o1 | 3.07 |
| Oc1ccc(O)c(-c2ccccc2)c1 | 5.01 |
| Fc1cccc2ccccc12 | 3.39 |
| C=CCC(C)O (stereo unspecified) | 1.48 |
| Cc1ccc([N+](=O)[O-])cc1F | 3.33 |
| CCOc1cccc(C=O)c1O | 3.85 |
| C/C=C/C(=O)O | 2.46 |
| Cc1ccc(O)c([N+](=O)[O-])c1 | 3.57 |
| O=C(CBr)c1ccccc1 | 5.82 |
